# Test results reported in patent US20260306453A1, “FORMULATIONS CONTAINING TRYPTAMINE DERIVATIVES AND USES THEREOF” (priority 2023, published 2026).
# Where two headings read alike, the source gives them in different places.
# Columns and labels:
# [1] = tested on: mice; test: In vivo mouse head-twitch response
# [2] = tested on: mice; test: Fear extinction and conditioning; type: in vivo, mouse
# Source text: The fear extinction and conditioning model is a preclinical assay that performs a stimulus and tests response time and recognition of the stimulus. This translational model can correlate to anxiety, PTSD, memory, and precognitive effects to the positive control (4-AcO-DMT).
# [3] = tested on: mice; test: 2-day Porsolt Forced-Swim Test; type: in vivo; settings: Mus musculus, ip, both days, read-out: Porsolt Forced Swim (Both Days), minimum effective dose
# Source text: The 2-day Porsolt Forced-Swim Test is a preclinical assay that tests for antidepressant effects in mice. […] Day 2 behavior is more likely to assess learning and memory with shorter swim times indicative of learning to be rescued.
# [4] = tested on: mice; test: Elevated plus maze
# [5] = target: 5-HT5A (Homo sapiens, UniProt P47898); test: Radioligand binding in vitro assay, 5-HT5A
# 5-HT5A, sequence (P47898 whole entry): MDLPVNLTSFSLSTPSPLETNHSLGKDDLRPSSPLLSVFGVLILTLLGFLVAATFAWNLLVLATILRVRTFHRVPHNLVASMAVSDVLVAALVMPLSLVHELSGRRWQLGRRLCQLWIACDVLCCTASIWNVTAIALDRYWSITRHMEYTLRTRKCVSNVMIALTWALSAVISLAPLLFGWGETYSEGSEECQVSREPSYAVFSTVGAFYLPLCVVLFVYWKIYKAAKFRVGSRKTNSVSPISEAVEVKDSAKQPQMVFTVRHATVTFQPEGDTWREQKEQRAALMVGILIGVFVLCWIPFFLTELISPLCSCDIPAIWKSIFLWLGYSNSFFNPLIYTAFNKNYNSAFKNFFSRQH
# [6] = target: T1, 5-HT7A (Homo sapiens, UniProt P34969); test: Radioligand binding in vitro assay, 5-HT7A
# T1 sequence (P34969 other isoform, or with tags, fused parts or gaps): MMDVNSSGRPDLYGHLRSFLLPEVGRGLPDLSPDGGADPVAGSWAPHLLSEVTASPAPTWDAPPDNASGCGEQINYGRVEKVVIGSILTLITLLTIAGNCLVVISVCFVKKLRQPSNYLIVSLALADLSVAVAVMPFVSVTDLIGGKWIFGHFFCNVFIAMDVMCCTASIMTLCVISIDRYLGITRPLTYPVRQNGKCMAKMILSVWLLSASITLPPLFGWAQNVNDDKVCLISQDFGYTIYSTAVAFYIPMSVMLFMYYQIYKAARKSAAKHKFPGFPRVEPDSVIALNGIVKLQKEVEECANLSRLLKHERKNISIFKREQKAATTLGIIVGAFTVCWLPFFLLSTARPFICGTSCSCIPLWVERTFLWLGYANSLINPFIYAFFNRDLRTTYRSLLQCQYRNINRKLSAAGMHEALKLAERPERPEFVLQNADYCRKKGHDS
# [7] = target: Sigma 1 (Homo sapiens, UniProt Q99720); test: Radioligand binding in vitro assay, Sigma 1
# Sigma 1, sequence (Q99720 whole entry): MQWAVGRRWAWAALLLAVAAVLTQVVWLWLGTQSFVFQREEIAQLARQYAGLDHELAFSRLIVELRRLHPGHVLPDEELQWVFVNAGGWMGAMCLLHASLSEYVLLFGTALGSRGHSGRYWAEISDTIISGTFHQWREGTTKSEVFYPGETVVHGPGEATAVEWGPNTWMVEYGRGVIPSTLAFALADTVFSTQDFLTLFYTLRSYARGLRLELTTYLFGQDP
# [8] = target: Sigma 2 (Homo sapiens, UniProt Q5BJF2); test: Radioligand binding in vitro assay, Sigma 2
# Sigma 2, sequence (Q5BJF2 whole entry): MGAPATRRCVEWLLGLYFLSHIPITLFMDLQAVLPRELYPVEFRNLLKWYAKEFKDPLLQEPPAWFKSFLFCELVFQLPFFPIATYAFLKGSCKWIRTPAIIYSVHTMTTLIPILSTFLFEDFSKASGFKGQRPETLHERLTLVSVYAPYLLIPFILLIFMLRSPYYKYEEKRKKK
# [9] = target: 5-HT1B (Homo sapiens, UniProt P28222); test: Radioligand binding in vitro assay, 5-HT1B
# 5-HT1B, sequence (P28222 whole entry): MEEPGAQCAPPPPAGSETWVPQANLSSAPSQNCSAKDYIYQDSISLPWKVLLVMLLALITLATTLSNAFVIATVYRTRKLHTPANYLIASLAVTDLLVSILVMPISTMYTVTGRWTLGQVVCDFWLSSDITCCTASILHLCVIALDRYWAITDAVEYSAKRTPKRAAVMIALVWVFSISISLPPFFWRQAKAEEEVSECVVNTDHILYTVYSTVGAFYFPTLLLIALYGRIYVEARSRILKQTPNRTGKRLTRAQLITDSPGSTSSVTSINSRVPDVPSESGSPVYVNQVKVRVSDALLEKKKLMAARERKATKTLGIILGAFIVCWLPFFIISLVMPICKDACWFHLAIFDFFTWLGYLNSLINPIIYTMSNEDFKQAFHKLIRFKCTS
# [10] = target: 5-HT1D (Homo sapiens, UniProt P28221); test: Radioligand binding in vitro assay, 5-HT1D
# 5-HT1D, sequence (P28221 whole entry): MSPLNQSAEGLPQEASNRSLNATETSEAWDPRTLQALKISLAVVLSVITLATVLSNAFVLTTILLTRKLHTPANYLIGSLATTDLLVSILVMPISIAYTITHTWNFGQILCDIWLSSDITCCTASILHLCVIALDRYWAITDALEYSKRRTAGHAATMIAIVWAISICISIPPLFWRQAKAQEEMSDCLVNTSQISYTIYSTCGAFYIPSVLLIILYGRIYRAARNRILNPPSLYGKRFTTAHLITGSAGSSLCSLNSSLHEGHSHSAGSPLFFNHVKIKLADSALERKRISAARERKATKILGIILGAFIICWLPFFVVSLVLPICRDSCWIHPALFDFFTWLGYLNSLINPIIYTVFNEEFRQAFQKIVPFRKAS
# [11] = target: 5-HT1E (Homo sapiens, UniProt P28566); test: Radioligand binding in vitro assay, 5-HT1E
# 5-HT1E, sequence (P28566 whole entry): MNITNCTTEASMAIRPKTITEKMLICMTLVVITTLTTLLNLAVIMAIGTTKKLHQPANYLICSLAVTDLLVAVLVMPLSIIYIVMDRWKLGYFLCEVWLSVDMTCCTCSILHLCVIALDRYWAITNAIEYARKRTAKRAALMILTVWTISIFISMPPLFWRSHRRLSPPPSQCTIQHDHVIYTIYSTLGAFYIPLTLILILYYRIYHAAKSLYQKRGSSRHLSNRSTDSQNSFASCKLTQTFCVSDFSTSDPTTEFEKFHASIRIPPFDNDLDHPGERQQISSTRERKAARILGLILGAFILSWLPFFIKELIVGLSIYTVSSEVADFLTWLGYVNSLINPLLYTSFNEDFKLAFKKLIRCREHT
# [12] = target: T2, 5-HT2B (Homo sapiens, UniProt P41595); test: Radioligand binding in vitro assay, 5-HT2B
# T2 sequence (P41595 whole entry): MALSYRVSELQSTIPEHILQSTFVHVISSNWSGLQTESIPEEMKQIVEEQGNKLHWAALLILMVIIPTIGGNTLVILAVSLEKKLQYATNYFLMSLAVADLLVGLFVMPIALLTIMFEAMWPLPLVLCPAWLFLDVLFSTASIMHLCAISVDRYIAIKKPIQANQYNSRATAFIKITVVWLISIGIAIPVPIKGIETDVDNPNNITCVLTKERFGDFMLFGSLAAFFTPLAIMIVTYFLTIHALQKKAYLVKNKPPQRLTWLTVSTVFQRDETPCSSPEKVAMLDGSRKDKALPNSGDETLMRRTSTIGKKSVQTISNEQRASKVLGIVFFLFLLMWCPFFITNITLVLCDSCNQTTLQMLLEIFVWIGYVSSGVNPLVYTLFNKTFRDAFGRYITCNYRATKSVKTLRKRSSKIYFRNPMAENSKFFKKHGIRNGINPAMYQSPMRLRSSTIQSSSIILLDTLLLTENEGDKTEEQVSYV
# [13] = target: T3, 5-HT2C (Homo sapiens, UniProt P28335); test: biochemical; settings: radioligand binding
# T3 sequence (P28335 33-458): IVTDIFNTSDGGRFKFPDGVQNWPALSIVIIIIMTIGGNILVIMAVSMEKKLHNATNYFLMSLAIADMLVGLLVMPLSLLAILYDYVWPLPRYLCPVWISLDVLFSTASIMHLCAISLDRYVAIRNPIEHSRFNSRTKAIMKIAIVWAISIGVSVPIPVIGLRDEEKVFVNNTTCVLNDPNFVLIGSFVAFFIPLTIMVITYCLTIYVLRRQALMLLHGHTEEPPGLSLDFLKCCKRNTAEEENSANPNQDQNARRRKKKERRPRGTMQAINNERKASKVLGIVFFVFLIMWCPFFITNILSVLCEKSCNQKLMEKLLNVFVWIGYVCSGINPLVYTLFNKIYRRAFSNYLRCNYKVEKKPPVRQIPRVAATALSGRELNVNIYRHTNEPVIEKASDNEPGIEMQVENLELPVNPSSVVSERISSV
# [14] = target: T4, 5-HT6 (Homo sapiens, UniProt P50406); test: Radioligand binding in vitro assay, 5-HT6
# T4 sequence (P50406 whole entry): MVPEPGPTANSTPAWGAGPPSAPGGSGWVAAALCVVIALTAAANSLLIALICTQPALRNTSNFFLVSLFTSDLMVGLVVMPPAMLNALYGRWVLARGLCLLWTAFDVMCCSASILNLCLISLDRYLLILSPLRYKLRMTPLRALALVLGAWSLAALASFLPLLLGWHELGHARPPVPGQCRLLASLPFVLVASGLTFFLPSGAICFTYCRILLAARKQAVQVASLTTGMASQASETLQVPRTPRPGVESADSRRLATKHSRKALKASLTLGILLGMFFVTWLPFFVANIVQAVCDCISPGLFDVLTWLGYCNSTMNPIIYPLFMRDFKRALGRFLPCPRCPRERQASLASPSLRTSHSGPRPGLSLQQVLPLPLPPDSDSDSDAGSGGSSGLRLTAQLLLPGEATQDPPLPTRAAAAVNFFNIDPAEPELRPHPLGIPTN
# [15] = target: T3, 5-HT2C; test: biochemical; settings: agonism
# [16] = target: T4, 5-HT6; test: In vitro functional activity, 5-HT6; type: biochemical; settings: agonism
# Source text: (§1) The functional activity considers agonism vs. antagonism. […] Each of these receptors affects mental health, learning, memory, and more specifically, 5-HT6 is responsible for precognitive effects and neuronal connections, growth, and migration.
# [17] = target: T1, 5-HT7A; test: In vitro functional activity, 5-HT7A; type: biochemical; settings: agonism; inverse agonism at 5-HT7A
# Source text: as §1
# [18] = target: T5, 5-HT2A (Homo sapiens, UniProt P28223); test: In vitro functional activity, 5-HT2A; type: biochemical; settings: agonism
# T5 sequence (P28223 whole entry): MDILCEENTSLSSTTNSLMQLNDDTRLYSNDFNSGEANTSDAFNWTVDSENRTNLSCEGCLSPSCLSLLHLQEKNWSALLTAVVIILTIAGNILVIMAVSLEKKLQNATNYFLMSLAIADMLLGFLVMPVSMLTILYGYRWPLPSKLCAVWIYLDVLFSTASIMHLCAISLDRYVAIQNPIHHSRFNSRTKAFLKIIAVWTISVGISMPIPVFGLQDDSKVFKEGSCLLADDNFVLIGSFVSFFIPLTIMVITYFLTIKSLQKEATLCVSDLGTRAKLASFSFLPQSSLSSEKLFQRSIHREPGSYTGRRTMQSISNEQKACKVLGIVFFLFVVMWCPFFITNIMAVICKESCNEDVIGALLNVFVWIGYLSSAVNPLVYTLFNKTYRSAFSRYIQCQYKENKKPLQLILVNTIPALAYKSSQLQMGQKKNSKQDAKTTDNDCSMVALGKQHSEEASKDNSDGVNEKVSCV
# [19] = type: in vivo; settings: rat; oral or IV administration; within minutes
# Protocol: The rat PK (FIG. 6) was assessed with an oral dose of 10 mg/kg and intravenously at 1 mg/kg. […] The PK and brain concentrations were assessed in cohorts of 3 […] for each dosing group and between the plasma vs brain concentrations. For 10 mg/kg oral dosing, the PK parameters are outlined in Table 16 below.
# 1 mg/kg IV dosing, the PK parameters are outlined in Table 17.
# [20] = target: 5-HT1A (Homo sapiens, UniProt P08908); test: Radioligand binding in vitro assay, 5-HT1A
# 5-HT1A, sequence (P08908 whole entry): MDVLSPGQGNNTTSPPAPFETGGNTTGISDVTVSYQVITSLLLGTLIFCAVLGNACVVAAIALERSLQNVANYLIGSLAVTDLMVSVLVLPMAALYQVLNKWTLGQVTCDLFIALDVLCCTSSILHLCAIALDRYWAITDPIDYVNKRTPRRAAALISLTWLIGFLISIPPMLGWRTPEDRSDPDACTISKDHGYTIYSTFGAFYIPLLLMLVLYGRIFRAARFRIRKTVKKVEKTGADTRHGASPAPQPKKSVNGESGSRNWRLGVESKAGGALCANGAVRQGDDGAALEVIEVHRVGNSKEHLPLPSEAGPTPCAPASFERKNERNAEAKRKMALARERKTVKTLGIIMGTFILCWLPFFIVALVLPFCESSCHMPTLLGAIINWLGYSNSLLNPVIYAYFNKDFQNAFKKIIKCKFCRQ
# [21] = target: T5, 5-HT2A; test: biochemical; settings: radioligand binding
# [22] = target: T2, 5-HT2B; test: In vitro functional activity, 5-HT2B; type: biochemical; settings: agonism
# Source text: as §1
# [23] = rat, in vivo
# [24] = in vivo; settings: rat, 3 mg/kg
# [25] = Rat pharmacodynamics (hypothermia) of intranasal DMT; settings: in vivo
# [26] = radioligand binding, read-out: Ki 5-HT5A
# [27] = radioligand binding, read-out: Ki Sigma 1
# [28] = radioligand binding, read-out: Ki Sigma 2
# [29] = radioligand binding, read-out: Ki 5-HT1B
# [30] = radioligand binding, read-out: Ki 5-HT1D
# [31] = radioligand binding, read-out: Ki 5-HT1E
structure (smiles),measurement,setting,value
CC(=O)Oc1cccc2[nH]c(Br)c(CCN(C)C)c12 [drawing 23],Head Twitch Response Results,[1],No Head Twitch up to 50 mg/kg
CN(C)CCc1c(Br)[nH]c2ccccc12 [drawing 34],"Fear Extinction and Conditioning, effective dose range",[2],1 to 10 mg/kg
CC(C)N(CCc1c(Br)[nH]c2ccccc12)C(C)C [drawing 30],minimal effective dose,[3],10 mg/kg
CC(=O)Oc1cccc2[nH]c(Br)c(CCN(C)C)c12 [drawing 35],"Fear Extinction and Conditioning, effective dose range",[2],5 to 25 mg/kg
CC(C)N(CCc1c(Br)[nH]c2ccccc12)C(C)C [drawing 32],"Elevated Plus Maze, effective dose range",[4],25 mg/kg
CN(C)CCc1c(Br)[nH]c2ccccc12 [drawing 9],Ki,[5]; [26],1520 nM
same,Ki,[6]; radioligand binding,137 nM
same,Ki,[7]; [27],239 nM
same,Ki,[8]; [28],2460 nM
CC(C)N(CCc1c(Br)[nH]c2ccccc12)C(C)C [drawing 36],"Fear Extinction and Conditioning, effective dose range",[2],1 to 10 mg/kg
CC(=O)Oc1cccc2[nH]c(Br)c(CCN(C)C)c12 [drawing 31],"Elevated Plus Maze, effective dose range",[4],5 to 10 mg/kg
CC(C)N(CCc1c(Br)[nH]c2ccccc12)C(C)C [drawing 6],Ki,[9]; [29],> 10 µM
same,Ki,[10]; [30],1070 nM
same,Ki,[11]; [31],> 10 µM
same,Ki,[12],45.2 nM
CN(C)CCc1c(Cl)[nH]c2ccccc12 [drawing 10],Ki,[13],120 nM
same,Ki,[5]; [26],3000 nM
same,Ki,[14]; radioligand binding,62 nM
same,Ki,[6]; radioligand binding,178 nM
same,Ki,[7]; [27],638 nM
same,Ki,[8]; [28],> 10000 nM
CC(=O)Oc1cccc2[nH]c(Br)c(CCN(C)C)c12 [drawing 18],EC50,[15],0.864 µM
same,EC50,[16],8 nM
same,EC50,[17],917 nM
CN(C)CCc1c(Cl)[nH]c2ccccc12 [drawing 17],EC50,[18],202 nM
same,EC50,[15],4.48 µM
same,EC50,[16],9 nM
same,EC50,[17],630 nM
CC(=O)Oc1cccc2[nH]cc(CCN(C)C)c12 [drawing 11],Ki,[6]; radioligand binding,59.6 nM
same,Ki,[7]; [27],> 10000 nM
same,Ki,[8]; [28],> 10000 nM
CC(=O)Nc1cccc2[nH]cc(CCN(C)C)c12 [drawing 15],Ki,[13],1000 nM
same,Ki,[14]; radioligand binding,> 10000 nM
same,Ki,[6]; radioligand binding,290 nM
same,Ki,[7]; [27],> 10000 nM
same,Ki,[8]; [28],> 10000 nM
CC(=O)Oc1cccc2[nH]c(Br)c(CCN(C)C)c12 [drawing 5],Ki,[9]; [29],> 10 µM
same,Ki,[10]; [30],> 10000 nM
same,Ki,[11]; [31],> 10 µM
same,Ki,[12],67.7 nM
"Br.CN(C)CCc1c(Br)[nH]c2ccccc12 [2-Br-4-AcO-DMT*HBr, 2-(2-bromo-1H-indol-3-yl)-N,N-dimethylethan-1-amine hydrobromide salt]",metabolism via deacetylation into 2-Br-4-OH-DMT,[19],rapidly metabolized via deacetylation into an active metabolite
"CC(=O)Oc1cccc2[nH]cc(CCN(C)C)c12 [drawing 22, reference compound]",Head Twitch Response Results,[1],Positive Control causes head twitch at 20 mg/kg
CN(C)CCc1c(Cl)[nH]c2ccccc12 [drawing 3],Ki,[9]; [29],> 10 µM
same,Ki,[10]; [30],> 10000 nM
same,Ki,[11]; [31],3.91 µM
same,Ki,[12],191 nM
CN(C)CCc1c(Cl)[nH]c2ccccc12 [drawing 21],Head Twitch Response Results,[1],No Head Twitch up to 100 mg/kg
CN(C)CCc1c(Br)[nH]c2ccccc12 [drawing 2],Ki,[20],> 10000 nM
same,Ki,[9]; [29],> 10 µM
same,Ki,[10]; [30],> 10000 nM
same,Ki,[11]; [31],> 10 µM
same,Ki,[21],0.417 µM
same,Ki,[12],222 nM
CC(C)N(CCc1c(Br)[nH]c2ccccc12)C(C)C [drawing 24],Head Twitch Response Results,[1],No Head Twitch up to 25 mg/kg
CN(C)CCc1c(Br)[nH]c2ccccc12 [drawing 16],EC50,[18],> 10000 nM
same,EC50,[22],799 nM
same,EC50,[16],7 nM
same,EC50,[17],225 nM
CC(=O)Oc1cccc2[nH]cc(CCN(C)C)c12 [drawing 4],Ki,[12],11.6 nM
CN(C)CCc1c(Br)[nH]c2ccccc12 [drawing 27],minimal effective dose,[3],1 to 10 mg/kg
CN(C)CCc1c[nH]c2cccc(NS(C)(=O)=O)c12 [drawing 14],Ki,[13],> 10000 nM
same,Ki,[14]; radioligand binding,> 10000 nM
same,Ki,[6]; radioligand binding,930 nM
same,Ki,[7]; [27],> 10000 nM
same,Ki,[8]; [28],> 10000 nM
CN(C)CCc1c[nH]c2cccc(NS(C)(=O)=O)c12 [drawing 33],"Elevated Plus Maze, effective dose range",[4],25 mg/kg
CN(C)CCc1c(Br)[nH]c2ccccc12 [drawing 20],Head Twitch Response Results,[1],No Head Twitch up to 50 mg/kg
CN(C)CCc1c[nH]c2cccc(NS(C)(=O)=O)c12 [drawing 25],Head Twitch Response Results,[1],No Head Twitch up to 25 mg/kg
CN(C)CCc1c(Cl)[nH]c2ccccc12 [drawing 28],minimal effective dose,[3],25 mg/kg
"CN(C)CCc1c[nH]c2ccccc12 [N,N-dimethyltryptamine, reference compound]",Ki,[9],0.557 µM
same,Ki,[10],42.2 nM
same,Ki,[11],0.104 µM
same,Ki,[5],155 nM
same,Ki,[14],134 nM
same,Ki,[6],15.2 nM
same,Ki,[7],230 nM
same,Ki,[8],777 nM
same,tmax (maximal effects),[23],10 min
same,Cmax,[24],60 ng/mL
same,hypothermia,[25],dose-dependent hypothermia
CC(=O)Nc1cccc2[nH]cc(CCN(C)C)c12 [drawing 8],Ki,[20],570 nM
same,Ki,[21],3.4 µM
same,Ki,[12],700 nM
CC(=O)Oc1cccc2[nH]c(Br)c(CCN(C)C)c12 [drawing 29],minimal effective dose,[3],5 mg/kg
CC(=O)Nc1cccc2[nH]cc(CCN(C)C)c12 [drawing 26],Head Twitch Response Results,[1],No Head Twitch up to 50 mg/kg
CC(C)N(CCc1c(Br)[nH]c2ccccc12)C(C)C [drawing 19],EC50,[18],2130 nM
same,EC50,[22],18 nM
same,EC50,[15],> 10 µM
same,EC50,[16],186 nM
same,EC50,[17],5870 nM
CC(C)N(CCc1c(Br)[nH]c2ccccc12)C(C)C [drawing 13],Ki,[13],> 10000 nM
same,Ki,[5]; [26],> 10000 nM
same,Ki,[14]; radioligand binding,407 nM
same,Ki,[6]; radioligand binding,4930 nM
same,Ki,[7]; [27],257 nM
same,Ki,[8]; [28],483 nM
CC(=O)Oc1cccc2[nH]c(Br)c(CCN(C)C)c12 [drawing 12],Ki,[13],1220 nM
same,Ki,[5]; [26],894 nM
same,Ki,[14]; radioligand binding,70.7 nM
same,Ki,[6]; radioligand binding,396 nM
same,Ki,[7]; [27],> 10000 nM
same,Ki,[8]; [28],> 10000 nM
CN(C)CCc1c[nH]c2cccc(NS(C)(=O)=O)c12 [drawing 7],Ki,[20],2900 nM
same,Ki,[21],> 10 µM
same,Ki,[12],1900 nM
